Source: ChEMBL document CHEMBL3243921, “2-Pyrrolidinylideneureas, a new class of central nervous system agents” (J Med Chem, 1978)
The source made the active and inactive calls.

What was measured:
[1] = Acute toxicity in po dosed mouse assessed as mortality administered as qd for 6 days measured on day 7 post last dose; format: organism-based; conditions: in vivo
Mus musculus [2] = test: Potency index, ratio of chlorzoxazone MED20 to compound MED20 for muscle relaxant activity in po dosed mouse assessed as blockade of pentylenetetrazol-induced tonic extensor seizure; format: functional
Mus musculus [3] = test: Muscle relaxant activity in po dosed mouse assessed as blockade of pentylenetetrazol-induced tonic extensor seizure; format: functional
Mus musculus [4] = test: Sedative activity in mouse assessed as increase in pentylenetetrazol-induced pseudo-convulsive threshold up to 200 mg/kg, po; format: functional, organism-based; parameters: dose 200 mg/kg
Mus musculus [5] = test: Blockade of pentylenetetrazol-induced lethality in mouse assessed as delay in occurrence of death time up to 200 mg/kg, po; format: functional
Mus musculus [6] = test: Muscle relaxant activity in po dosed mouse assessed as increase in strychnine-induced persistant convulsive threshold; format: functional
Mus musculus [7] = test: Anticonvulsant activity in po dosed mouse assessed as blockade of supramaximal electroshock-induced […] seizure; format: functional
Mus musculus [8] = test: Potency index, ratio of methocarbamol MED20 to compound MED20 for anticonvulsant activity in po dosed mouse assessed as blockade of supramaximal electroshock-induced […] seizure; format: functional
Mus musculus [9] = test: Potency index, ratio of chlorzoxazone MED20 to compound MED20 for anticonvulsant activity in po dosed mouse assessed as blockade of supramaximal electroshock-induced […] seizure; format: functional
Mus musculus [10] = test: Potency index, ratio of methocarbamol MED20 to compound MED20 for muscle relaxant activity in po dosed mouse assessed as blockade of pentylenetetrazol-induced tonic extensor seizure; format: functional
Mus musculus [11] = test: Hypnotic activity in mouse assessed as increase in pentylenetetrazol-induced persistent-convulsive threshold up to 200 mg/kg, po; format: functional, organism-based; parameters: dose 200 mg/kg
Rattus norvegicus = test: Antianxiety activity in ip dosed rat assessed as effect on increase in punished responses administered qd for 5 days measured every day for 5 days; format: functional; conditions: for minimal effective dose: 120 h, read-out: MED
Mus musculus [12] = test: Acute toxicity in po dosed mouse assessed as concentration required to produce 50% loss of righting reflex administered as qd for 4 days measured for 1 min post last dose; format: organism-based; conditions: in vivo
[13] = Ratio of LD50 for po dosed mouse to PD50 for acute toxicity in po dosed mouse assessed as concentration required to produce 50% loss of righting reflex; format: organism-based; conditions: in vivo
[14] = Therapeutic index, ratio of PD50 for acute toxicity in po dosed mouse assessed as concentration required to produce 50% loss of righting reflex to MED25 for muscle relaxant activity in po dosed mouse assessed as increase in strychnine-induced persistant convulsive threshold; format: organism-based; conditions: in vivo, read-out: TI
[15] = Therapeutic index, ratio of PD50 for acute toxicity in po dosed mouse assessed as concentration required to produce 50% loss of righting reflex to MED causing antianxiety activity in ip dosed rat assessed as effect on increase in punished responses; format: organism-based; conditions: in vivo, other: oral (PD50, mouse) and intraperitoneal (MED, rat), read-out: TI
Mus musculus [16] = test: Sedative activity in mouse assessed as increase in pentylenetetrazol-induced pseudo-convulsive threshold at 25 to 200 mg/kg, po; format: functional, organism-based
Mus musculus [17] = test: Hypnotic activity in po dosed mouse assessed as increase in pentylenetetrazol-induced persistent-convulsive threshold; format: functional, organism-based
Mus musculus [18] = test: Sedative-hypnotic activity in po dosed mouse assessed as increase in pentylenetetrazol-induced persistent-convulsive threshold; format: functional, organism-based
Mus musculus [19] = test: Sedative-hypnotic activity in mouse assessed as increase in pentylenetetrazol-induced pseudo/persistent-convulsive threshold at 50 to 200 mg/kg, po; format: functional, organism-based

SMILES	LD50 at 144 h [1] [mg/kg]	MED20 (Mus musculus [3]) [mg/kg]	MED25 (Mus musculus [6]) [mg/kg]	MED20 (Mus musculus [7]) [mg/kg]	minimal effective dose (Rattus norvegicus) [mg/kg]	PD50 (Mus musculus [12]) [mg/kg]	selectivity ratio [13]	Activity (Rattus norvegicus)	Activity (Mus musculus [17])	Activity (Mus musculus [3])	Activity (Mus musculus [6])	Activity (Mus musculus [7])	Activity (Mus musculus [18])	also measured
CCc1cccc(C)c1NC(=O)/N=C1\CCCN1C	650	20	96	36										Ratio (Mus musculus [2]): 4; Activity (Mus musculus [4]): inactive; Time (Mus musculus [5]): 1 min; Ratio (Mus musculus [8]): 3; Ratio (Mus musculus [9]): 3; Ratio (Mus musculus [10]): 4; Activity (Mus musculus [11]): inactive
Cc1cccc(C)c1NC(=O)/N=C1\CCCN1C [XILOBAM]		22	26	27	> 25	230								Activity (Mus musculus [4]): inactive; Activity (Mus musculus [11]): inactive
CCc1cccc(CC)c1NC(=O)/N=C1\CCCN1C	370	16	120	64	> 25	161	2.3							Ratio (Mus musculus [2]): 4; Activity (Mus musculus [4]): inactive; Time (Mus musculus [5]): 1 min; selectivity ratio [14]: 1.3; Ratio (Mus musculus [10]): 4; Activity (Mus musculus [11]): inactive
Cc1cccc(NC(=O)/N=C2\CCCN2C)c1	850	25	>200	76	25	825	1							selectivity ratio [15]: 33; Activity (Mus musculus [16]): Active
CN1CCC/C1=N\C(=O)Nc1cccc(Br)c1	1580	52	58	180	25	1430	1.1							selectivity ratio [15]: 57; Activity (Mus musculus [16]): Active
CC(C)c1cccc(C(C)C)c1NC(=O)/N=C1\CCCN1C	260	180	>200	165										Activity (Mus musculus [4]): inactive; Time (Mus musculus [5]): 1 min; Activity (Mus musculus [11]): inactive
COc1cccc(NC(=O)/N=C2\CCC(C)N2C)c1 (stereo not drawn)	1900	68	160	135	> 25	680	1.5							
CN1CCC/C1=N\C(=O)Nc1cccc(I)c1	> 1000	36	86	112	> 25	> 820								
CN1CCC/C1=N\C(=O)Nc1cccc(F)c1	525	38	210	200	25	500	1							selectivity ratio [15]: 20
CCC1(c2ccccc2)C(=O)NC(=O)NC1=O [PHENOBARBITAL]							3							
CN1CCC/C1=N\C(=O)Nc1cccc(C(F)(F)F)c1	> 1000	47	58	76	> 25	1000								Activity (Mus musculus [16]): Active
COc1cccc(OC)c1NC(=O)/N=C1\CCCN1C	650	62	>200	80	> 25	460	1.4							Activity (Mus musculus [4]): inactive; Time (Mus musculus [5]): 1 min; Activity (Mus musculus [11]): inactive
COc1cccc(NC(=O)/N=C2\CCCN2C)c1	1200	68	135	135	> 25	1390	1.5							Activity (Mus musculus [16]): Active
CN1CCC/C1=N\C(=O)Nc1c(Cl)cccc1Cl	565	25	64	58	> 25	320	1.8							Ratio (Mus musculus [2]): 4; Activity (Mus musculus [4]): inactive; Time (Mus musculus [5]): 1 min; selectivity ratio [14]: 5; Ratio (Mus musculus [10]): 4; Activity (Mus musculus [11]): inactive
CCOc1ccccc1NC(=O)/N=C1\CCCN1C								Active	Active	Active	Active	Active	Active	
CN1CCCCC/C1=N\C(=O)Nc1cccc(Cl)c1								inactive	inactive	inactive	inactive	inactive	inactive	
CC1/C(=N\C(=O)Nc2cccc(Cl)c2)N(C)CC1c1ccccc1 (stereo not drawn)								inactive	inactive	inactive	inactive	inactive	inactive	
CC1/C(=N\C(=O)Nc2c(Cl)cccc2Cl)N(C)CC1c1ccccc1 (stereo not drawn)								inactive	inactive	inactive	inactive	inactive	inactive	
Cc1cccc(C)c1NC(=O)/N=C1\CCCCCN1C								inactive	inactive	inactive	inactive	inactive	inactive	
CN1CCC/C1=N\C(=O)Nc1ccccc1Cl								Active	Active	Active	Active	Active	Active	
CCCCN1CCC/C1=N\C(=O)Nc1c(C)cccc1C								inactive	inactive	inactive	inactive	inactive	inactive	
CCN1CCC/C1=N\C(=O)Nc1cccc(Cl)c1	1700	60	137	200	15	1307	1.2						Active	selectivity ratio [15]: 58; Activity (Mus musculus [19]): Active
CN1CCC/C1=N\C(=O)Nc1ccccc1	215	40	35	>100	15	220	1							selectivity ratio [15]: 15; Activity (Mus musculus [16]): Active
Cc1cccc(C)c1NC(=O)/N=C1\C(C)C(c2ccccc2)CN1C (stereo not drawn)								inactive	inactive	inactive	inactive	inactive	inactive	
CN1CCCC/C1=N\C(=O)Nc1ccccc1								inactive	inactive	inactive	inactive	inactive	inactive	
CN1CCC/C1=N\C(=S)Nc1ccccc1								inactive	inactive	inactive	inactive	inactive	inactive	
CN1CCC/C1=N\C(=O)Nc1c(Br)cccc1Br	560	25	50	74	> 25	350	1.6							Ratio (Mus musculus [2]): 4; Activity (Mus musculus [4]): inactive; Time (Mus musculus [5]): 1 min; selectivity ratio [14]: 7; Ratio (Mus musculus [10]): 4; Activity (Mus musculus [11]): inactive
